Results taken from US20170232083A1, “METHODS OF DIAGNOSIS AND TREATMENT OF CELIAC DISEASE IN CHILDREN” (priority 2014, published 2017).

Test system: PBMC (polyclonal gluten-specific T cells) of paediatric and adult CD patients
Assay: IFN-γ ELISpot of PBMC after 3 day oral wheat challenge (SFU, % of maximal peptide response, dominance scores, EC50; Examples 5-6)
Format: cell-based, human
Settings: for Cross-reactive T cell response: following wheat challenge; for IFN-γ ELISpot response: after oral wheat challenge
[1] = subject I (3-5yrs/6-10yrs part)
[2] = subject J (3-5yrs/6-10yrs part)
[3] = subject K (3-5yrs/6-10yrs part)
[4] = subject V (3-5yrs/6-10yrs part)
[5] = subject W (3-5yrs/6-10yrs part)
[6] = subject Y (3-5yrs/6-10yrs part)
[7] = subject five (3-5yrs/6-10yrs part)
[8] = subject seven (3-5yrs/6-10yrs part)
[9] = subject six (3-5yrs/6-10yrs part)
[10] = subject ten (3-5yrs/6-10yrs part)
[11] = subject two (3-5yrs/6-10yrs part)

PEQPFPEQPQPYPQQP
Cross-reactive T cell response (subject A, 11-17yrs): 2 SFU | Cross-reactive T cell response (subject D, 11-17yrs): 2 SFU | Significant response as a percentage of maximal peptide SFU (subject E, 11-17yrs): (6-10% - ^) | Cross-reactive T cell response (subject E, 11-17yrs): 13 SFU | Cross-reactive T cell response (subject F, 11-17yrs): 6 SFU | Cross-reactive T cell response (subject G, 11-17yrs): 2 SFU | Cross-reactive T cell response (subject H): 6 SFU | Cross-reactive T cell response [1]: 2 SFU | Significant response as a percentage of maximal peptide SFU (subject J): ′ (11-20% = ′) | Cross-reactive T cell response [2]: 36 SFU | Cross-reactive T cell response [3]: 6 SFU | Cross-reactive T cell response (subject P, 11-17yrs): 10 SFU | Cross-reactive T cell response (subject Q, 11-17yrs): 2 SFU | Cross-reactive T cell response (subject T, 11-17yrs): 0 SFU | Cross-reactive T cell response (subject U, 11-17yrs): 1 SFU | Cross-reactive T cell response [4]: 1 SFU | Cross-reactive T cell response [5]: 9 SFU | Cross-reactive T cell response [6]: 1 SFU | Cross-reactive T cell response [7]: 1 SFU | Cross-reactive T cell response (subject nine, 11-17yrs): 1 SFU | Cross-reactive T cell response [8]: 4 SFU | Cross-reactive T cell response [9]: 5 SFU | Significant response as a percentage of maximal peptide SFU (subject ten): + (>70% = +) | Cross-reactive T cell response [10]: 12 SFU | Cross-reactive T cell response [11]: 1 SFU

PEQPFQPEQPFPQQ
Cross-reactive T cell response (subject A, 11-17yrs): 2 SFU | Cross-reactive T cell response (subject D, 11-17yrs): 1 SFU | Significant response as a percentage of maximal peptide SFU (subject E, 11-17yrs): (6-10% - ^) | Cross-reactive T cell response (subject E, 11-17yrs): 12 SFU | Cross-reactive T cell response (subject F, 11-17yrs): 6 SFU | Cross-reactive T cell response (subject G, 11-17yrs): 5 SFU | Cross-reactive T cell response (subject H): 3 SFU | Cross-reactive T cell response [1]: 1 SFU | Significant response as a percentage of maximal peptide SFU (subject J): ′ (11-20% = ′) | Cross-reactive T cell response [2]: 31 SFU | Cross-reactive T cell response [3]: 8 SFU | Cross-reactive T cell response (subject P, 11-17yrs): 9 SFU | Cross-reactive T cell response (subject Q, 11-17yrs): 7 SFU | Significant response as a percentage of maximal peptide SFU (subject T, 11-17yrs): ′ (11-20% = ′) | Cross-reactive T cell response (subject T, 11-17yrs): 11 SFU | Cross-reactive T cell response (subject U, 11-17yrs): 6 SFU | Cross-reactive T cell response [4]: 7 SFU | Cross-reactive T cell response [5]: 3 SFU | Cross-reactive T cell response [6]: 1 SFU | Cross-reactive T cell response [7]: 3 SFU | Cross-reactive T cell response (subject nine, 11-17yrs): 0 SFU | Cross-reactive T cell response [8]: 7 SFU | Cross-reactive T cell response [9]: 2 SFU | Significant response as a percentage of maximal peptide SFU (subject ten): + (>70% = +) | Cross-reactive T cell response [10]: 12 SFU | Cross-reactive T cell response [11]: 6 SFU

TIPEQPEQPFPLQ
IFN-γ ELISpot response (patient A, 11-17 yrs, cut-off 10 SFU): 0 SFU | IFN-γ ELISpot response (patient E, H, 11-17 yrs, cut-off 10 SFU): 224 SFU | Significant response as percentage of maximal peptide SFU (patient E, max peptide 224 SFU): + (>70% = +) | IFN-γ ELISpot response (patient F, 11-17 yrs, cut-off 10 SFU): 14 SFU | Significant response as percentage of maximal peptide SFU (patient F, max peptide 178 SFU): (6-10% = ^) | IFN-γ ELISpot response (patient G, 11-17 yrs, cut-off 10 SFU): 2 SFU | IFN-γ ELISpot response (patient H (HLA-DQ2.5 homozygote), 3-5yrs, cut-off 10 SFU): 2 SFU | IFN-γ ELISpot response (patient H, 11-17 yrs, cut-off 10 SFU): 4 SFU | IFN-γ ELISpot response (patient ID not given, 11-17 yrs, cut-off 10 SFU): 6 SFU | Significant response as percentage of maximal peptide SFU (patient J, max peptide 196 SFU): (6-10% = ^) | IFN-γ ELISpot response (patient N, 3-5yrs, cut-off 10 SFU): 3 SFU | IFN-γ ELISpot response (patient P, 11-17 yrs, cut-off 21.6 SFU): 7 SFU | IFN-γ ELISpot response (patient Q, 11-17 yrs, cut-off 10 SFU): 8 SFU | IFN-γ ELISpot response (patient U, H, 11-17 yrs, cut-off 10 SFU): 5 SFU | IFN-γ ELISpot response (patient V, 6-10 yrs, cut-off 10 SFU): 0 SFU | IFN-γ ELISpot response (patient Y, 6-10 yrs, cut-off 10 SFU): 2 SFU | IFN-γ ELISpot response (patient eleven, 6-10 yrs, cut-off 10 SFU): 3 SFU | IFN-γ ELISpot response (patient four, 3-5yrs, cut-off 10 SFU): 3 SFU | IFN-γ ELISpot response (patient seven, 6-10 yrs, cut-off 10.5 SFU): 1 SFU | IFN-γ ELISpot response (patient ten, 3-5yrs, cut-off 10 SFU): 5 SFU | IFN-γ ELISpot response (patient three, 6-10 yrs, cut-off 10.5 SFU): 18 SFU | IFN-γ ELISpot response (patient twelve, 11-17 yrs, cut-off 10 SFU): 1 SFU | IFN-γ ELISpot response (patient two, 3-5yrs, cut-off 10 SFU): 11 SFU | Significant response as percentage of maximal peptide SFU (patient two, max peptide 60 SFU): ′ (11-20% = ′)
